{"source": "patent US20260055065A1", "about": "“PYRIDAZINONE COMPOUNDS WHICH MODULATE MUTANT PROTEINS FOR TREATING RESPIRATORY DISEASES” (The Hospital for Sick Children, priority 2022, published 2026)", "key": {"deltaF508 CFTR": {"biological_target": "T1, deltaF508 CFTR (Homo sapiens, UniProt P13569, DEL508-508)", "T1 construct": "host or cells: CFBE (cystic fibrosis bronchial-derived cell line)", "T1 sequence (P13569 with tags, fused parts or gaps DEL508-508)": "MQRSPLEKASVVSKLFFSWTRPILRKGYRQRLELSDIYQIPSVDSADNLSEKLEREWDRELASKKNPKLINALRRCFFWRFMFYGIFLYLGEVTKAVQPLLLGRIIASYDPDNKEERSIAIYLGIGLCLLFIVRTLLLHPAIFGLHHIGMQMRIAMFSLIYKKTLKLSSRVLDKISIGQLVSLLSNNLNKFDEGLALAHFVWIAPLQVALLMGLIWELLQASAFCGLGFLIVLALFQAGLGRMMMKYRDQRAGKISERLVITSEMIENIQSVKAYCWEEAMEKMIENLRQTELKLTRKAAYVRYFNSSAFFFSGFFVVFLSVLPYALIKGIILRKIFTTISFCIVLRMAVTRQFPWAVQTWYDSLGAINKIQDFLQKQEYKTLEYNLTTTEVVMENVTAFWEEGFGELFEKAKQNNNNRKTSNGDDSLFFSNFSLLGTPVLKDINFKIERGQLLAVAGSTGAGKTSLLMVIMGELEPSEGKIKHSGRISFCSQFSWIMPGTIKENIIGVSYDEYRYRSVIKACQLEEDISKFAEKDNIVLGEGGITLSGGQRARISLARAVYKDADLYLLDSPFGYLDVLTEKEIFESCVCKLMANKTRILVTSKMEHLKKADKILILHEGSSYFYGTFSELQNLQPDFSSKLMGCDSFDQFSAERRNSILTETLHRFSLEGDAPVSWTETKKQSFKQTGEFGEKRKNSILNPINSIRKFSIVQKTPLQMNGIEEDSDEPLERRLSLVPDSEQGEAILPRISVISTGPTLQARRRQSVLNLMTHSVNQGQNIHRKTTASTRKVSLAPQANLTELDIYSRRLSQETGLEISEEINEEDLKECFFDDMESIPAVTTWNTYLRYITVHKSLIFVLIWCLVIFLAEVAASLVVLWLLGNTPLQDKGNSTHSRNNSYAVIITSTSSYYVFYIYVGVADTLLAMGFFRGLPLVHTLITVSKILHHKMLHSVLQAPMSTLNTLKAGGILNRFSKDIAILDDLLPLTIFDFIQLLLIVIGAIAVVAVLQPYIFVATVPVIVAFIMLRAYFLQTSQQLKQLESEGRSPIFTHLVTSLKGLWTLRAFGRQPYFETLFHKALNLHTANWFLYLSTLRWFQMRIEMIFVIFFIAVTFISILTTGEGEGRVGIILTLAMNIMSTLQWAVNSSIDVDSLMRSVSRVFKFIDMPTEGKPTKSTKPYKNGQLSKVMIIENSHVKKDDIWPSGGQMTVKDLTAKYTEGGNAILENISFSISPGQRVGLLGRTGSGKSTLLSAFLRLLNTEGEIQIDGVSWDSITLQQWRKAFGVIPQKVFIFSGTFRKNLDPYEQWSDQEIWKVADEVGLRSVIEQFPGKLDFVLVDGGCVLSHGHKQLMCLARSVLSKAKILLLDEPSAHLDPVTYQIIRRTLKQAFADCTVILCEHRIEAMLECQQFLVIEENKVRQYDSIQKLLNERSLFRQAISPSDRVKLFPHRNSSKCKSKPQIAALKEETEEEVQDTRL", "experiment": "CFBE potentiator assay (FLIPR membrane potential, temperature-rescued)", "type": "cell-based", "conditions": "CFBE cells, 3 micromolar forskolin; read-out: CFBE potentiator assay pot. pEC50 (converted)", "procedure": "Cell culture: HEK293 cells stably expressing human deltaF508 CFTR were cultured in DMEM/F12 medium containing 10% fetal bovine serum (FBS) and 600 micrograms/mL geneticin. For functional CFTR assays, cryo-preserved cells were quickly thawed in a 37° C. water bath, diluted with warm DMEM/F12 medium containing 10% FBS, spun down at 300×g for 5 mins and resuspended in the same medium at a density of 300,000 cells/mL. A cystic fibrosis bronchial-derived cell line complemented with a 4.7 Kb deltaF508 CFTR cDNA (“CFBE”) was obtained from Dr. Dieter Gruenert under a license from UCSF. These cells were cultured in MEM with Earle's salt (Invitrogen)supplemented with 10% fetal bovine serum (Invitrogen) and 300 micrograms/mL hygromycin (Millipore). CFBE cells were grown on flasks coated with a fibronectin solution containing LHC basal medium (Invitrogen), 0.001% bovine serum albumin (Sigma), 1% v/v Vitrogen 100 (BD Bioscience) and 10 micrograms/mL human fibronectin (Life Technologies). All cells were grown at 37° C. and 5% CO2 unless specified for an assay.\nCFBE potentiator assay: CFBE cells were dissociated for 10 mins at 37° C. with Hank's balanced salt solution containing 0.6 mM EDTA and 10% of a 0.25% Trypsin/EDTA solution (all from Life Technologies). An equal amount of CFBE cell growth medium (see Cell culture above) was then added to the flasks and cells were spun at 500×g for 10 mins. Cells were re-suspended in cell medium at a density of 150,000 cells/mL and plated in 384-well black, poly-D-Lysine-coated plates (7,500 cells/well). Cells were then grown at 37° C., 5% CO2 for a total of 6-8 days to allow differentiation. Cell medium was changed every 2-3 days. The day before each experiment, culture medium was removed, fresh culture medium was added and cells were placed at 30° C., 5% CO2 for 18-24 hrs to allow temperature rescue of delF508 CFTR. Potentiation activity was measured as described above for HEK cells except cells were stained for exactly 60 mins, compounds (or DMSO for negative control) were mixed with assay buffer containing 3 micromolar forskolin, and the positive control wells had assay buffer containing 3 micromolar forskolin and 9 micromolar VX-770 (Selleckchem).\nData analysis: CFTR activity was defined as maximum fluorescence signal after addition minus baseline fluorescence. All data were normalized to each plate's positive and negative controls and expressed as percent responses. Concentration response curves were analyzed by fitting the data to a 4-parameter logistic equation in Microcal's Origin or IDBS' Activity Base software."}, "[1]": {"tested_on": "primary differentiated human bronchial epithelial cultures", "experiment": "Bead tracking assay of mucociliary movement, primary bronchial epithelial cultures exposed to cigarette smoke extract", "type": "cell-based", "conditions": "for mucostasis / bead velocity in CSE-treated cultures: CSE 2%, compound 1 μM for 24 hours, forskolin 10 μM", "procedure": "Compound 11 was tested in an in-vitro model of COPD. In this model, primary differentiated human bronchial epithelial cultures were exposed to cigarette smoke extract (4,5). Exposure to cigarette smoke extract (CSE) led to mucostasis and slowed mucociliary movement (FIG. 1(A) and (B)). […] Changes in mucociliary movement were determined as in our previous publication (7), i.e., by tracking the speed of fluorescent beads added to the surface of the airway cultures. The relative rescue effect of Compound 11 compared favourably relative to the competitor, the FDA approved CFTR potentiator marketed as Ivacaftor (VX-770).\nMature bronchial epithelial cultures, seeded on 24-well transwell inserts, derived from non-smoker donors of variable ages were received from the University of Iowa and cultured at air-liquid interface (ALI) using UltraG medium. A total of 6 inserts per donor were cultured, and all inserts from a single donor were selected to receive chronic drug and toxin treatment. Ahead of chronic treatment, cultures were subject to mucomist to reduce the volume and viscosity of the mucous layer ahead of imaging. Cultures were first washed twice with 200 uL HBSS (Wisent) applied apically to the transwell, each wash for 10 minutes at 37 degrees and 5% CO2. Cells were then incubated with 10 μM N-acetyl-cysteine (source?) dissolved in HBSS (Wisent) for 30 minutes, followed by a final HBSS wash as described previously. The toxin treatment consisted of either cigarette smoke extract (CSE) prepared in 100% DMSO (University of Alabama at Birmingham), dissolved at a concentration of 2% (v/v) in UltraG medium, with an equivalent concentration of DMSO alone serving as a control. The chronic drug treatment was co-applied with the toxin treatment, which included either VX-770 (Vertex) or SK-POT, aka Compound 11 (both prepared in 100% DMSO) dissolved in UltraG medium at a final concentration of 1 μm. There were a total of 6 chronic treatments, with each of the 6 inserts per donor receiving a different chronic treatment. Bronchial epithelia were incubated with the chronic treatment, applied apically, for 24 hours at 37 degrees C. and 5% CO2. After 24 hours, green fluorescent microspheres (brand?) dissolved in HBSS at a concentration of 0.05% (v/v) were applied apically; cultures were incubated with the microspheres for 45 minutes. The toxin and potentiator treatments were carried forth into the microsphere solution.\nInserts were then imaged at room temperature by epifluorescence microscopy (Zeiss or Olympus). The basic replicate of the assay consists of a 5-second video captured in the green channel and 40-60 frames per second; Z-position was adjusted ahead of each video to ensure beads in the airway surface liquid stratum immediately above the cilia were being captured. 5 videos were captured per insert/conditions, representing the centre and 4 corners of the insert. 2 sets of 5 videos were captured per insert/condition: one at baseline, and one 20 minutes following CFTR stimulation by forskolin at a concentration of 10 μM. Inserts were incubated at room temperature after forskolin addition.\nVideos were captured using Volocity software and exported as one TIF file per frame. Frames were then re-compiled into complete videos using Arivis 4D software. Using an algorithm as previously described in Wu et al. 2017, microspheres were highlighted by adjusting two parameters: fluorescence intensity and diameter. […]"}}, "note": "“Also recorded” adds a separate entry of the source."}
{"smiles": "CC(C)(C)c1ccc(-n2nc(-c3ccc(F)cc3)c(N3CCCCC3)c(N)c2=O)cc1O", "note": "[Compound 11, 4-amino-2-(4-(tert-butyl)-3-hydroxyphenyl)-6-(4-fluorophenyl)-5-(piperidin-1-yl)pyridazin-3(2H)-one]", "values": [{"measurement": "EC50", "setting": "deltaF508 CFTR", "value": 10, "unit": "nM"}, {"measurement": "mucostasis / bead velocity in CSE-treated cultures", "setting": "[1]", "value": "prevented the mucostasis induced by cigarette smoke extract; also recorded: rescued to control values"}, {"measurement": "mucostasis / bead velocity in CSE-treated cultures", "setting": "[1]; listed as SK-POT", "value": "significant increase in bead velocity"}, {"measurement": "bead velocity under control conditions", "setting": "[1]; no CSE, compound added with vehicle for 24 hours", "value": "Neither VX-770 nor Compound 11 had any impact on bead velocity"}]}
